Data published in US4942256A, “Novel intermediates in the manufacture of novel thromboxane A2 antagonists” (National Research Development Corporation, priority 1988, dated 1990).

Columns and labels:
[1] = system: U-46619-induced platelet aggregation; assay: Inhibition of U-46619-induced platelet aggregation (rat), in vitro in rat platelet rich plasma; assay type: cell-based; details: for IC50: 1 min preincubation at 37° C
Procedure: a. Inhibition of U-46619-induced platelet aggregation (rat)
Platelet rich plasma (PRP) was prepared from heparanized whole blood (5 units/ml) drawn from the abdominal aorta of ether anesthetized rats. PRP was prepared by centrifugation (Sorvall RC2B, DuPont, Wilmington, Del.) of the whole blood at 150×g for 10 min. Platelet poor plasma (PPP) was prepared by centrifugation at 1200×g for 20 min. Aliquots of PRP and PPP were used to standardize the aggregometer (Payton, Buffalo, N.Y., model 300B) with the recorder (Riken Denshi 2 channel recorder, Payton, model SP H5P) for measurement of […] light transmittance, respectively.
Platelet aggregation was measured as an increase in light transmittance. PRP (390 μl aliquot+5 μl compound vehicle) was preincubated for 1 min. at 37° C., with stirring at 900 rpm in the aggregometer. The vehicle control response was obtained by adding U-46619 (Cayman Chemical, Ann Arbor, Mich., 1-2 units/cuvette/10 μl ) to the aliquot of PRP. Aggregation was monitored until maximum aggregation was achieved (approximately 3 min. following the addition of U-46619). Amount of aggregation was measured by grids on the strip chart.
Compounds were dissolved in either ethanol (ETOH) or Na2 CO3 (0.1M) and preincubated at the desired concentration in PRP for 1 min. at 37° C. with stirring. At the end of the preincubation, U-46619 was added and aggregation measured. Inhibition of aggregation by compound was calculated as percent inhibition of the control aggregation response to U-46619. Dose response curves were generated and IC50 's calculated by linear regression.

[2] = system: U-46619 induced platelet aggregation; assay: Ex vivo inhibition of U-46619 induced platelet aggregation, intragastric (rat); assay type: in vivo; details: for ED50: read-out: I.G. ED50, ex vivo inhibition of U-46619 induced aggregation; for I.V./I.G. ratio: from the I.V. and the I.G. studies, rat ED50
Procedure: (§1) II. Ex vivo--(rat) Inhibition of U-46619 induced platelet aggregation
Compounds dissolved in Na Carbonate were administered to conscious rats with an I.G. tube. Fifteen minutes post administration (time previously determined to show maximum effect), rats were anesthetized with ether and blood was sampled from the abdominal aorta. PRP was prepared as described in II a.

[3] = system: collagen induced platelet aggregation; assay: Inhibition of collagen induced platelet aggregation in dog PRP; assay type: cell-based; details: Canis lupus familiaris
Procedure: c. Inhibition of collagen induced platelet aggregation in dogs by SC-44161 and SC-46984
Blood was collected into citrated vacutainers from the jugular veins of conscious dogs and centrifuged at 200×g for 7 min. PRP was separated and an aliquot (450 μl ) incubated 1 min. in the aggregometer (as described above). Collagen (50 μl, Helena Reagent, bovine tendon) was added and aggregation monitored for 5 min. Percent inhibition and IC50 's were determined as previously described.

[4] = system: U-46619 induced platelet aggregation; assay: Ex vivo inhibition of U-46619 induced platelet aggregation, intravenous (rat); assay type: in vivo; details: for ED50: Platelet, iv, 0.5 min, i.v. bolus, blood sampled 30 sec. later
Procedure: as §1
Rats were anesthetized with ether and the jugular vein exposed. Compound dissolved in 0.1M Na Carbonate was injected as a bolus into the jugular vein. Blood (5 ml, heparanized) was sampled 30 sec. later from the abdominal aorta. PRP was prepared by quick centrifugation (Eppendorf, model 5415 at 12,000 rpm for 5 sec.) PPP was prepared by centrifugation for 2 min. PRP was diluted 1:1 with PPP from, similarly treated animals. Aggregation was monitored for 5 min. and inhibition was determined as previously described.

human washed platelets = assay: Analysis of partial agonism with SC-46985 (human washed platelets); assay type: cell-based
Procedure: b. Analysis of partial agonism with SC-46985 (human washed platelets)
(§2) Sixty ml of blood were drawn into 1/10 volume of CCD (100 mM Na Citrate and 136 mM glucose, pH 6.5 with HCl) and PRP prepared as described above. PRP was placed on ice for 15 min. One half of the volume of CCD was added and recentrifuged. The platelet pellet was gently resuspended in 1/2 the original volume of PRP in a 0° C. modified Tangen-Hepes-BSA buffer (145 mM NaCl, 5 mM KCl, 0.05 mM CaCl2, 0.1 mM MgCl2, 11 mM glucose, 15 mM Hepes, 1 mg/ml bovine serum albumin, pH adjusted to 7.4 with NaOH). The resuspended platelets were incubated undisturbed at 37° C. for 30 min. After incubation a platelet count was determined and adjusted to 3×10^8 cells/ml with the Tangen-Hepes-BSA buffer.
(§3) 425 μl of the washed human platelet suspension was incubated in the aggregometer in the presence of 16 mM CaCl2 (50 μl ) and SC-46985 for 5 and 10 min. […] (In a study similar to (a) above, aliquots of human washed platelets were incubated with various concentrations of SC-46985 and U-46619 to determine dose-related inhibition of aggregation).

[5] = system: human washed platelets stimulated with U-46619; assay: Inhibition of U-46619 stimulated aggregation of human washed platelets by SC-46985; assay type: cell-based; details: Platelet
Procedure: as §2, §3

[6] = Rattus norvegicus, Platelet, vehicle Na2CO3 (0.1M), (a) values are estimates based on all-or-none responses
[7] = Platelet, po, 0.25 h, rat, intragastric, 15 min post administration
[8] = Rattus norvegicus, Platelet, vehicle ETOH

CC(=NNC(=S)Nc1ccccc1)[C@@H]1[C@H]2CC[C@H](C2)[C@H]1C/C=C/CCCC(=O)O [SC-47721, 7-[3α-[1-[[(Phenylamino)thioxomethyl]hydrazono]ethyl]-1R, 1α,4α-bicyclo[2.2.1]hept-2β-yl]-5E-heptenoic acid]
IC50 [1, 6]: ~7.5 nM
potency compared with SC-46984 (in vitro) ([1]; rat PRP, U-46619): less potent than SC 46984
times more potent than SC-44161 (in vitro) ([1]; rat PRP, U-46619): 10-50 times
inhibition at 1 mg/kg ([2]; Platelet, po, 0.25 h, rat, intragastric, 1 mg/kg, 15 min post administration): 37.5%

CC(=NNC(=S)Nc1ccccc1)C1C2CCC(C2)C1CC=CCCCC(=O)O (stereo not shown) [SC-46986]
IC50 ([1]; vehicle ETOH): 690 nM

CC(=NNC(=S)Nc1ccccc1)C1C2CCC(C2)C1CC=CCCCC(=O)O (racemic) [SC-44161, (±)7-[3α[[(Phenylamino)thioxomethyl]hydrazono]ethyl]1α,4α-bicyclo[2.2.1]hept-2β-yl]-5Z-heptenoic acid]
IC50 [1, 6]: 70 nM
more potent when in aqueous solution than when dissolved in ethanol ([1]; rat PRP, Na carbonate vs ETOH): 5-10 fold
IC50 [3]: 11400 nM
ED50 [4]: 0.031 mg/kg
ED50 [2, 7]: 1.21 mg/kg
I.V./I.G. ratio [2]: 39

CC(=NNC(=S)Nc1ccccc1)[C@H]1[C@@H]2CC[C@@H](C2)[C@@H]1C/C=C\CCCC(=O)O [SC-46985]
IC50 [1, 8]: 970 nM
IC50 [1, 6]: ~2500 nM
partial agonist activity (human washed platelets; 5 and 10 min. incubation): lack of partial agonist activity
evidence of shape change or aggregation (partial agonism) (human washed platelets; after 5 and 10 min. incubation): no evidence of shape change or aggregation
IC50 [5]: 5600 nM
ED50 [4]: 0.045 mg/kg
times less potent than SC-44161 (I.V.) ([4]; i.v., ex vivo): approximately 1.5 times

CC(=NNC(=S)Nc1ccccc1)[C@@H]1[C@H]2CC[C@H](C2)[C@H]1C/C=C\CCCC(=O)O [SC-46984, 7-[3α-[1-[[(Phenylamino)thioxomethyl]hydrazono]ethyl]-1R, 1α,4α-bicyclo[2.2.1]hept-2β-yl]5Z-heptenoic acid]
IC50 [1, 8]: 50 nM
IC50 [1, 6]: 0.7 nM
more potent in aqueous solution than in ethanol ([1]; rat PRP, Na carbonate vs ETOH): 10-50 times
times more potent than SC-44161 (in vitro) ([1]; rat PRP, U-46619): approximately 100 times
IC50 [3]: 2090 nM
ED50 [4]: 0.0087 mg/kg
times more potent than SC-44161 (I.V.) ([4]; i.v., ex vivo): approximately 3.5 times
ED50 [2, 7]: 0.44 mg/kg
I.V./I.G. ratio [2]: 51
times more potent than SC-44161 (I.G.) ([2]; rat, intragastric, ex vivo): approximately 2.8 times
